# Test results taken from PubChem BioAssay AID2423 (Broad Institute, 2010).
# Several values for one entry are separate records, joined by “and”; a condition that tells them apart may be missing. Identical values can stand only once. Inconclusive results are not listed. Activity calls are given as the source filed them. No rule for the calls is given here.
# Test system: C. albicans CaCi-8 + fluconazole, Alamar Blue growth, 48 h
# Assay: resistant C. albicans growth inhibition with fluconazole, dose response, CaCi-8 strain, Alamar Blue fluorescence (AID 2423)
row,SMILES,EC50
1,Cc1ccc(C(=O)NC(=O)OCCn2c(C)cnc2[N+](=O)[O-])cc1,> 16000 nM (inactive)
2,O=CNCCCc1nc2ccccc2n1Cc1cccc2ccccc12,3520 nM
3,CC(=O)NC(c1ccc(C)cc1)c1cc([N+](=O)[O-])c2cccnc2c1O (stereo unspecified),201 nM
4,Cc1ccc(-n2c(Cc3ccccc3)n[nH]c2=S)c(C)c1,803 nM
5,COc1ccc(C(C(=O)NC2CCCCC2)N(Cc2cccs2)C(=O)Cc2c[nH]c3ccccc23)cc1 (stereo unspecified),> 15000 nM (inactive)
6,Cc1noc2ncnc(Sc3ccc(Cl)cc3)c12,2930 nM
7,Cc1cc(Oc2ccccc2)nc(-c2ccccc2O)n1,> 15000 nM (inactive)
8,N/C(Cc1ccccc1)=N\OC(=O)c1cccc2ccccc12,1400 nM
9,NC(=O)c1ccsc1NC(=O)CCS(=O)(=O)c1ccccc1,1730 nM
10,CCOc1ccc(-n2c(C)cc(C(=O)CCl)c2C)cc1,5790 nM
11,Cc1cccc(C(=O)NNC2=C(C(=O)C(F)(F)F)CCC2)c1O,1230 nM
12,Nc1[nH]n2c(=O)cc(-c3ccccc3)nc2c1N=Nc1ccc(S(N)(=O)=O)cc1,3060 nM
13,CN1/C(=C\C(=O)C[n+]2ccc(C(=O)c3ccccc3)cc2)C(C)(C)c2ccccc21,4060 nM
14,CCOC(=O)c1c(-c2ccccc2Cl)cn2ccccc12,2120 nM
15,CCN(CC)c1cccc(OC2=NS(=O)(=O)c3ccccc32)c1,11000 nM
16,CCOc1ccccc1C(=O)Nc1ccc2nc3n(c(=O)c2c1)CCCCC3,2510 nM
17,CCN(CC)c1ccc(/C=N/NC(=O)c2ccco2)c(O)c1,2420 nM
18,CN(C)c1ccc(C(=O)N/N=C/c2cc(Br)cc(Br)c2O)cc1,10900 nM
19,N=C(N)c1ccc(/C=C/c2ccc(C(=N)N)cc2O)cc1,> 15000 nM (inactive)

row,SMILES,EC50
1,COc1cccc(/C=N/Nc2cc(-n3nc(C)cc3-c3ccccc3)ncn2)c1O,662 nM
2,Cc1[nH]n(-c2ccccc2)c(=O)c1/C=N/Nc1nncc(-c2ccccc2)n1,2670 nM
3,O=C1CS/C(=N\C(=O)N2c3ccccc3Sc3ccccc32)N1,1090 nM
4,O=C(Nc1nnc(-c2ccco2)o1)c1ccc(Cl)cc1,1160 nM
5,CN(C)S(=O)(=O)Oc1cccc(C(=O)Nc2ccc(Cl)c(Cl)c2)c1,711 nM
6,CCC(C)(C)c1ccc(OCCCC[n+]2cccc(C)c2C)c(C(C)(C)CC)c1,> 16000 nM (inactive)
7,CCOc1cccc(-c2cc(-c3n[nH]c(=S)n3CC)c3ccccc3n2)c1,4000 nM
8,Cc1ncc(CO)c(/C=N/NC(=S)Nc2ccc(Cl)c(Cl)c2)c1O,1880 nM
9,Cc1ccc(C(=O)CC(=O)c2ccc(C(C)(C)C)cc2)cc1,6220 nM
10,Cc1onc(-c2ccccc2Cl)c1C(=O)Nc1sc2c(c1C#N)CCC2,< 120 nM
11,CCc1cc(-c2n[nH]c(=S)n2-c2ccccc2C)cs1,415 nM
12,Cc1ccc2c(c1)c(/C=C/c1cc[n+](C)cc1)c(C)n2C,> 16000 nM (inactive)
13,N#C/C(=C\c1ccc(OC(=O)c2cccs2)cc1)c1nc2ccccc2[nH]1,3210 nM
14,Cc1ccc(Nc2nc(NCc3ccco3)c3ccccc3n2)cc1,2440 nM
15,CCCCOc1cccc(C(=O)NNC(=S)NC2CCCCC2)c1,8740 nM
16,O=C(N/N=C/c1cc([N+](=O)[O-])ccc1O)C1C2CCCCC21 (stereo unspecified),2160 nM
17,Cc1noc(/C=C/c2ccccn2)c1[N+](=O)[O-],1900 nM
18,Nc1n[nH]c(-c2cccc([N+](=O)[O-])c2)n1,> 15000 nM (inactive)
19,COc1cnc(-c2ccccn2)nc1Sc1cccc(Cl)c1,> 16000 nM (inactive)

row,SMILES,EC50
1,CCOc1ccc(/C=N/NC(=O)c2[nH]ncc2Br)c(O)c1,1850 nM
2,COc1cccc(NC(=O)c2ccc3nc(C)sc3c2)c1,1490 nM
3,NNC(=O)c1cc(O)c(O)c(O)c1,8640 nM
4,c1ccc2c(c1)CCN(c1ncnc3c1[nH]c1ccccc13)C2,558 nM
5,Cc1cc(C(=O)NNC(=S)NC(C)c2ccccc2)c2ccccc2n1 (stereo unspecified),3090 nM
6,CC1=C/C(=N\NC(=S)NCCc2ccccc2)CC(C)(C)C1,> 15000 nM (inactive)
7,CC(C)CC(=O)NC(=S)NNC(=O)c1ccc(NC(=O)C2CCCCC2)cc1,1210 nM
8,c1cnc2c(c1)ccc1cccnc12,10500 nM and 9350 nM
9,Oc1c(CN2CCN(c3ccc(F)cc3)CC2)cc(Cl)c2cccnc12,572 nM
10,Cc1ccccc1-n1c(=O)c(C#N)cc2c(=O)n3ccccc3nc21,> 16000 nM (inactive)
11,C=CCNC(=S)Nc1sc2c(c1C(=O)OCC)CC(C)(CC)OC2 (stereo unspecified),1380 nM
12,N/C(Cc1ccc(Cl)c(Cl)c1)=N\OC(=O)c1cccs1,893 nM
13,CNC(=S)/N=C/NOCc1ccc(Cl)cc1Cl,460 nM
14,O=C(O)c1ccc(-c2nc(-c3ccc(Cl)c(Cl)c3)cs2)cc1,4160 nM
15,CC(C)OP(=O)(c1ccc(N(C)C)cc1)C(O)c1ccccc1 (stereo unspecified),4320 nM
16,CCCCC(=O)NC(c1ccccc1)c1ccc2cccnc2c1O (stereo unspecified),752 nM
17,CCCNC(=O)c1ccc2c(=O)c(O)c(-c3cccc(Br)c3)[nH]c2c1,3040 nM
18,COc1cc(/C=C/C(=O)Nc2cccnc2)cc(OC)c1OC,> 16000 nM (inactive)
